The values that follow come from patent US11148998B2, “Dimethyl-nonatetraenyl-trimethyl-cyclohexyl compounds and uses thereof” (The Regents of the University of Michigan, priority 2017, dated 2021).

Series [1] relates to human dermal fibroblasts. The series is described as follows: Retinoid-induced fibroblast survival under low-calcium conditions. It counts as cell-based. To be noted: for protection of fibroblasts from lysis (percentage of initially present cells still viable): 0.1 to 5 μg/mL. As to the method:
Human dermal fibroblasts are isolated from skin biopsies as described previously and grown in monolayer culture using DMEM supplemented with 10% fetal bovine serum as culture medium (see, e.g., Varani J, et al., J Clin Invest. 1994; 94; Varani J, et al., J. Invest. Dermatol. 94:717-723, 1990). Growth is at 37° C. in a humidified atmosphere containing 5% CO2 and 95% air. For experimental studies, cells are plated at 5×10^4 cells per well in wells of a 24-well culture dish in the same culture medium. One day later, cells are washed and the DMEM culture medium is replaced with Keratinocyte Basal Medium (KBM).
In this assay, low-passage human dermal fibroblasts are grown for three days in Keratinocyte Basal Medium (KBM) at a calcium concentration (0.1 mM) that is too low to support survival. […] How retinoids act to prevent fibroblast lysis is not fully understood, but part of the mechanism involves modulation of calcium transit across the cell membrane in the presence of the active retinoids (see, e.g., Varani J, et al., Am. J. Path. 136:1275-1281, 1990; Varani K, et al., Am J. Pathol. 147:718-729, 1995; Varani J, et al., Amer. J. Pathol. 148: 1307-1312, 1996).

For series [2], the system named is human dermal fibroblasts. The experiment in a line: Generation of pro-inflammatory cytokines by fibroblasts (multiplex ELISA). The settings on record: KBM 1.5 mM calcium, two days, culture fluids. The class given is cell-based. As to the method: Fibroblasts were grown in KBM supplemented with 1.5 mM calcium (i.e., as in the fibroblast cytotoxicity assay) for two days. Culture fluids obtained at the end of the incubation period were assessed for several pro-inflammatory cytokines using a multiplex (ELISA-type) assay. Values shown are means and ranges based on duplicate samples in a single experiment. The experiment was repeated two times with similar results.
It is believed that the pro-inflammatory cytokines are “drivers” of the retinoid-induced skin irritation response. […] In this experiment, fibroblasts were cultured for two days in KBM supplemented with 1.5 mM calcium (i.e., as in the cytotoxicity assay). Culture fluids were collected after two days of incubation and subjected to a multiplex enzyme-linked immunosorbant assay (ELISA) for the following cytokines: TNF-α, IL-1β, IL-6, IL-8, MCP-1 and CXCL-1.
On the technique in general: An ELISA detects its analyte on a solid surface through an enzyme-linked reagent.

For series [3], the system named is normal human skin in organ culture. The series is described as follows: Retinoid-induced skin thickening in human skin organ culture. To be noted: 1 μg/mL, 8 days organ culture. The class given is cell-based. As to the method: Human skin biopsies were incubated for 8 days in organ culture. […] At the end of the incubation period, the tissue was fixed for histology and examined at the light microscopy level after staining with hematoxylin and eosin. […] These abnormalities are not seen in the ex. 1—treated skin section.
Replicate 2-mm punch biopsies (up to 12 per subject) are obtained from hip skin of volunteers 18-70 years of age. The participation of human subjects is approved by the University of Michigan Institutional Review Board and all subjects provide written informed consent prior to their inclusion in the study. The punch biopsies are incubated in wells of a 24 well dish (one tissue piece per 200-500 μL of culture medium). Culture medium consists of KBM. For organ culture, the culture medium is supplemented with calcium chloride to a final calcium concentration of 1.5 mM. One or two wells are typically left as control while the others are treated as desired. Fresh culture medium and treatments are provided at 2-day intervals. Organ culture-conditioned medium collected at day-2 is saved for cytokine assessment or for measure of other bioactive molecules as desired. At the end of the incubation period (typically, day-8), the tissue is fixed in 10% buffered formalin and used for histology. The organ culture protocol used here is virtually identical to that described in several past reports (see, e.g., Varani J, et al., J Clin Invest. 1994; 94:1747-1756; Varani J, et al., Am J Pathol. 1993 January; 142(1):189-98; Lateef H, et al., Am J Pathol. 2004; 165:167-174; Varani J, et al., Exp Mol Pathol. 2004; 77(3):176-83; Varani J, et al., Am J Pathol. 1993 June; 142(6):1813-22; Varani J, et al., Toxicol. Pathol. 35:693-701, 2007; Rittié L, et al., J Invest Dermatol, 126:732-739, 2006).

The nature of series [4]: Rhino mouse topical treatment: spleen size. It counts as in vivo. To be noted: 0.1% topical, 21 days. The text has this:
Mouse skin is rather thinner than human skin, and topically applied drugs tend to get into the circulation more readily when applied to mice, especially the hairless mutants, than to humans.

Series [5] has as its system human skin in organ culture. The settings on record: cited from earlier work.
In a further series the test system is rhino mouse skin. The experiment in a line: Rhino mouse topical treatment: gross skin irritation (modified Draize scale). The class given is in vivo. To be noted: for gross skin appearance / irritation: topical daily for 21 days, photographed Day 22, ATRA as 35 mg of 0.1% cream, Examples in DMSO. As to the method:
FIGS. 10A-C: Lack of Dose-related skin irritation after 21 day topical treatment of rhino mice with 100 μL DMSO control (10A) and 100 μL DMSO containing Example 2 at 0.1 (10B) and 0.3% concentrations (10C).
FIG. 11. […] The cumulative irritation score is a modified version of the Draize irritation scale, and the animals were assessed daily by an assessor who was blinded to the treatment given each mouse.
Rhino mice (HRS\J hr^rhhr^rh)) were obtained from Jackson Laboratories. Animals were recent weanlings; at this stage in the life of the rhinomouse, the phenotype (i.e., skin with numerous horn-filled utriculi) is well expressed and continues to be for several weeks. Both males and females were included. Animals were divided into treatment groups. Once in the laboratory, the mice were kept in temperature- and humidity-controlled rooms. All procedures during the in-life portion of the study were carried out in facilities of the Unit for Laboratory Animal Medicine (ULAM) at the University of Michigan—which is an AAALAC-certified institution. All procedures were carried out with approval by the University of Michigan Institutional Animal Care and Use Committee (IACUC).
As a control, Tretinoin-0.1% was used. […] This is a commonly-prescribed anti-acne medicine.
Animals were housed individually during the treatment phase of the study. During the treatment phase, animals were assessed daily for overall health, and for signs of skin irritation. The Draize scale was used to assess skin irritation. The Draize scale evaluates the parameters of erythema and edema. Each parameter was scored between 0 and 4+ with 0 indicating no difference from control mice and 4+ indicating maximum erythema or edema. In addition, animals were assessed for dryness/flaking/cracking (single score). The overall irritation score was a compilation of the three parameters in all mice from a treatment group. During the treatment phase, animals were weighed weekly.
FIG. 1 left provides a summation of the skin irritation response in the different treatment groups. In control mice, there was little evidence of skin irritation at any time throughout the study. […] The initial spike in irritation was followed by a dip and then secondary rise. This is consistent with what is typically seen with ATRA. […] Neither the control mouse nor the Compound 1 & 2 treated mice show visible signs of irritation in the skin. In contrast, skin from the ATRA-treated mouse is red, dry and flaky. Small cracks in the skin can be seen and there is significant edema.

Take `CC1=C(/C=C/C(C)=C/C=C/C(C)=C/C(=O)O)C(C)(C)CCC1` [ATRA, all-trans retinoic acid, reference compound]: the “fall-off in cell numbers” value in the series with human dermal fibroblasts [1] (5 μg/mL, low-calcium survival assay) is recorded as “incipient toxicity”. For the same compound, in the series with human dermal fibroblasts [1] (KBM 0.1 mM calcium, three days), the “concentration at which protection was optimal” value is 1.0 µg/mL and the “protection of fibroblasts from lysis (percentage of initially present cells still viable)” value was “capable of protecting fibroblasts from lysis under low-calcium conditions”. In the series with human dermal fibroblasts [2], the “induction of pro-inflammatory cytokines (TNF-α, IL-1β, IL-6, IL-8, MCP-1, CXCL-1)” value (“induction of pro-inflammatory cytokines” for short) is “induced a strong up-regulation of several cytokines”. Also, in series [3], the “epidermal thickening (hyperplastic changes), histology” value was “hyperplastic changes (increased epidermal thickening)” and the “toxicity in the upper epidermis, histology” value is “evidence of toxicity in the upper epidermis (i.e., incomplete keratinization with loss of granular layer)”. The “spleen size (splenomegaly)” value in series [4] is “very marked splenomegaly”. In addition, in series [5] (human skin organ culture model), the “effect on collagen-degrading enzyme MMP-1 (collagenase 1)” value is recorded as “inhibited the major collagen-degrading enzyme (MMP-1, collagenase 1)” and the “procollagen I production” value was “induced procollagen I production”. Also, in series [5] (past studies), the “up-regulation of the pro-inflammatory cytokines that underlie retinoid-induced skin irritation” value was “as expected, did”. Further, the “cumulative irritation score (modified Draize scale)” value in the series on rhino mouse skin (0.1% topical daily for 21 days) is listed as “far more irritant”. The “gross skin appearance / irritation” value in the series on rhino mouse skin was “considerable skin irritation, along with excessive skin flaking”.
On to `CC1=C(/C=C/C(C)=C\C=C\C(C)=C\C(=O)N(C)CC(=O)C(C)(C)C)C(C)(C)CCC1` [Example 1, (2E,4E 6Z,8E)-N-(3,3-dimethyl-2-oxobutyl)-N,3,7-trimethyl-9-(2,6,6-trimethylcyclohex-1-en-1-yl)nona-2,4,6,8-tetraenamide], for which the “protection of fibroblasts from lysis (percentage of initially present cells still viable)” value in the series with human dermal fibroblasts [1] (KBM 0.1 mM calcium, three days) was “capable of protecting fibroblasts from lysis under low-calcium conditions”; in the series on human dermal fibroblasts [1] (KBM 0.1 mM calcium, three days, listed as Compound 1), “as effective as ATRA”. The results for the “induction of pro-inflammatory cytokines” value with human dermal fibroblasts [2] and with human dermal fibroblasts [2] (listed as Compound 1) were “no evidence of cytokine induction at the highest concentration” and “not observed”, respectively. For the same compound, the “epidermal thickening (hyperplastic changes), histology” value in series [3] was “hyperplastic changes (increased epidermal thickening)”. In addition, the “toxicity in the upper epidermis, histology” value in series [3] is “not seen”. The “gross skin appearance / irritation” value in the series with rhino mouse skin is on record as “normal rhino mouse appearance”.
Take `CC1=C(/C=C/C(C)=C\C=C\C(C)=C\C(=O)N(C)CC(=O)c2ccccc2)C(C)(C)CCC1` [Example 2, (2E,4E 6Z,8E)-N,3,7-trimethyl—N-(2-oxo-2-phenylethyl)-9-(2,6,6-trimethylcyclohex-1-en-1-yl)nona-2,4,6,8-tetraenamide]: the “protection of fibroblasts from lysis (percentage of initially present cells still viable)” value in the series with human dermal fibroblasts [1] (KBM 0.1 mM calcium, three days) is “capable of protecting fibroblasts from lysis under low-calcium conditions”. The “induction of pro-inflammatory cytokines” value is “no evidence of cytokine induction at the highest concentration” in the series with human dermal fibroblasts [2] and “not observed” in the series with human dermal fibroblasts [2] (listed as Compound 2). Also, the “signs of serious skin irritation” value in the series on rhino mouse skin (0.1% and 0.3% in DMSO, topical, 21 days) is reported as “did not show any signs of serious skin irritation at either dose”. For the same compound, the “gross skin appearance / irritation” value in the series on rhino mouse skin is reported as “normal rhino mouse appearance”.
